Experiments:
[1] = target: T1, Acetylcholinesterase (Homo sapiens, UniProt P22303); test: Inhibition of human erythrocyte AChE using acetylthiocholine iodide as substrate preincubated for 5 mins followed by substrate addition measured every minute for 10 mins by Ellman's method
[2] = target: Cholinesterase (Equus caballus, UniProt P81908)
Description: Inhibition of equine serum BChE using butyrylthiocholine iodide as substrate preincubated for 5 mins followed by substrate addition measured every minute for 10 mins by Ellman's method

[3] = target: T1, Acetylcholinesterase; test: Inhibition of human erythrocyte AChE using acetylthiocholine iodide as substrate at 10 uM preincubated for 5 mins followed by substrate addition measured every minute for 10 mins by Ellman's method relative to control
[4] = target: Cholinesterase (Equus caballus) (UniProt P81908); test: Inhibition of equine serum BChE using butyrylthiocholine iodide as substrate at 10 uM preincubated for 5 mins followed by substrate addition measured every minute for 10 mins by Ellman's method relative to control
Chain of Cholinesterase (Equus caballus) (P81908 whole entry): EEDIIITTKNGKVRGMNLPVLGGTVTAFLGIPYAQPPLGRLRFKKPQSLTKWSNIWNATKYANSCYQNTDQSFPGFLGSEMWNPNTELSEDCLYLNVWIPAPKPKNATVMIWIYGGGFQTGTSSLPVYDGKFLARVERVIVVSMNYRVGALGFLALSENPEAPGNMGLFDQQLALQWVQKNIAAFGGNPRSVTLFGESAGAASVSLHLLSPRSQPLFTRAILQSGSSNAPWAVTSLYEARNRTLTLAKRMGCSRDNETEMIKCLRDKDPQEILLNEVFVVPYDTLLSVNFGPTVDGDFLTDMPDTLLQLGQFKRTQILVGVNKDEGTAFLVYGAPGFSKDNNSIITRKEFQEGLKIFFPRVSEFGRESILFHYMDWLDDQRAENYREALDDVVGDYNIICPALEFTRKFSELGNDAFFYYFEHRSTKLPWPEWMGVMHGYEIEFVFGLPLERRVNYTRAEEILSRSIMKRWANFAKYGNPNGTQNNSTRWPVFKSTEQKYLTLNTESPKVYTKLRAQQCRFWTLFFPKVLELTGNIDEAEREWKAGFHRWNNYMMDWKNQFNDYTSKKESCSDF

[5] = Effective permeability of compound at 100 uM at pH 7.4 by PAMPA; format: ADME; conditions: read-out: Peff
[6] = Selectivity index, ratio of IC50 for equine serum BChE to IC50 for human erythrocyte AChE
[7] = Half life in 2% riboflavine solution in PBS at 25 uM by HPLC-UV analysis; format: physicochemical
[8] = in vitro; conditions: PAMPA, pH 7.4

T1 sequence (P22303 whole entry): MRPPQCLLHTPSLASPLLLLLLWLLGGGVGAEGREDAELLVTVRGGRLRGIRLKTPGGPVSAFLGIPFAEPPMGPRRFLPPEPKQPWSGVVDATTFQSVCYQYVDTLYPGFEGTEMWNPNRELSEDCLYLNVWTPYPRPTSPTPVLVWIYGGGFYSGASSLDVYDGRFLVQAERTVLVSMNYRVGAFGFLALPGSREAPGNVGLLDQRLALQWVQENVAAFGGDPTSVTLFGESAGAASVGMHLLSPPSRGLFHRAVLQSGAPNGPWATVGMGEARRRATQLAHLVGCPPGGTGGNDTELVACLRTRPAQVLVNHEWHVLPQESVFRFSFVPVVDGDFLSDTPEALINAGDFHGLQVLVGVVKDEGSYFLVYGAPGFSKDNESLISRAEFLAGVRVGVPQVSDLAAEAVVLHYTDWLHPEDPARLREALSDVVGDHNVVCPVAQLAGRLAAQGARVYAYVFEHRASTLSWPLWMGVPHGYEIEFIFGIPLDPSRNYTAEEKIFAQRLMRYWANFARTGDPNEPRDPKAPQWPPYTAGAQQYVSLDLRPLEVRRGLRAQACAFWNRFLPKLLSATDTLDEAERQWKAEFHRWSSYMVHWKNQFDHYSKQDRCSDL
Chain of Cholinesterase (P81908 whole entry): as the sequence (P81908 whole entry) above

SMILES | IC50 [1] [µM] | IC50 [2] [µM] | Ratio IC50 [6] | further results
COC(=O)c1c[n+](Cc2cccc(Cl)c2)ccc1CCC(=O)c1ccc(OC)c(OC)c1 | 0.171 | 2.03 | – | –
CNC(=O)c1c[n+](Cc2ccccc2C)ccc1CC1CCc2cc(OC)ccc2C1=O (centres undefined) | > 10 | 2.51 | – | –
COc1cc2c(cc1OC)C(=O)C(Cc1cc[n+](Cc3ccc(S(N)(=O)=O)cc3)cc1C(N)=O)C2 (centres undefined) | > 10 | > 10 | – | –
COc1ccc2c(c1)CCC(CC1C=CN(Cc3ccccc3F)C=C1C(C)=O)C2=O (centres undefined) | > 10 | – | – | –
COc1cc2c(cc1OC)C(=O)C(CC1C=CN(Cc3ccccc3)C=C1C(C)=O)CC2 (centres undefined) [listing 1 of 2 here] | – | – | – | inhibition [3]: 36%; inhibition [4]: 45%
COc1cc2c(cc1OC)C(=O)C(CC1C=CN(Cc3cccc(Cl)c3)C=C1C(N)=O)C2 (centres undefined) | – | – | – | inhibition [3]: 29%; inhibition [4]: 6%
C[C@]12CCC(=O)C=C1CC[C@@H]1[C@@H]2C(=O)C[C@@]2(C)[C@H]1CC[C@]2(O)C(=O)CO [CORTISONE] | – | – | – | Papp at 100 µM [5]: 16.8 to 20.3 ×10⁻⁶ cm/s
COc1cc2c(cc1OC)C(=O)C(CCCc1cc[n+](Cc3cccc(Cl)c3)cc1C(N)=O)C2 (centres undefined) | > 10 | 3.26 | – | –
COc1cc2c(cc1OC)C(=O)C(Cc1cc[n+](CCc3ccccc3)cc1C(N)=O)C2 (centres undefined) | 0.896 | > 10 | – | –
CC(=O)c1c[n+](Cc2cccc(Cl)c2)ccc1CC1Cc2cc(F)ccc2C1=O (centres undefined) | > 10 | – | – | –
CC(=O)C1=CN(Cc2cccc(Cl)c2)C=CC1CC1Cc2cc(F)ccc2C1=O (centres undefined) | > 10 | > 10 | – | –
COc1cc2c(cc1OC)C(=O)C(CC1C=CN(Cc3ccccc3)C=C1C(C)=O)CC2 (stereo in doubt; 24a-B) | 0.286 | 1.83 | – | –
COc1ccc2c(c1)CCC(Cc1cc[n+](Cc3ccccc3F)cc1C(C)=O)C2=O (centres undefined) | – | – | 11 | –
COc1ccc(C(=O)CCCCc2cc[n+](Cc3cccc(Cl)c3)cc2C(N)=O)cc1OC | > 10 | > 10 | – | –
COc1ccc2c(c1)CCC(CC1C=CN(Cc3cccc(F)c3)C=C1C(C)=O)C2=O (centres undefined) | > 10 | – | – | –
COc1ccc2c(c1)CCC(Cc1cc[n+](Cc3ccc(Cl)cc3)cc1C(C)=O)C2=O (centres undefined) | – | – | 10.7 | –
COc1ccc2c(c1)CCC(Cc1cc[n+](Cc3ccccc3C)cc1C(F)(F)F)C2=O (centres undefined) | 0.242 | 2.24 | 9.2 | –
COc1cc2c(cc1OC)C(=O)C(Cc1cc[n+](Cc3cccc(Cl)c3)cc1C(=O)O)C2 (centres undefined) | > 10 | > 10 | – | –
COc1ccc(C(=O)CCc2cc[n+](Cc3cccc(Cl)c3)cc2C(=O)O)cc1OC | 0.0181 | – | – | –
COc1ccc2c(c1)CCC(CC1C=CN(Cc3cccc(C)c3)C=C1C(C)=O)C2=O (centres undefined) | > 10 | – | – | –
COc1ccc(C(=O)CCc2cc[n+](Cc3ccccc3C(F)(F)F)cc2C#N)cc1OC | 0.275 | – | – | –

SMILES | IC50 [1] [µM] | IC50 [2] [µM] | Ratio IC50 [6] | further results
COc1ccc2c(c1)CCC(Cc1cc[n+](Cc3cccc(C)c3)cc1Br)C2=O (centres undefined) | – | – | 40 | –
COc1cc2c(cc1OC)C(=O)C(Cc1cc[n+](Cc3nc4ccccc4o3)cc1C(N)=O)C2 (centres undefined) | 9.27 | > 10 | – | –
COc1ccc2c(c1)CCC(Cc1cc[n+](Cc3ccccc3C)cc1C(N)=O)C2=O (centres undefined) | 0.894 | 9.11 | 10.2 | –
COc1cc2c(cc1OC)C(=O)C(CC1C=CN(Cc3cccc(Cl)c3)C=C1C(N)=O)C2 (stereo in doubt; 23h-B) | 27 | 19.9 | – | t1/2 ([7]; buffer, 25 µM): 17.7 min
COc1ccc2c(c1)CCC(Cc1cc[n+](Cc3ccccc3Cl)cc1C(C)=O)C2=O (centres undefined) | 0.0295 | – | 8.6 | –
COc1ccc2c(c1)CCC(Cc1cc[n+](Cc3ccccc3C)cc1C(C)=O)C2=O (centres undefined) | – | – | 43.3 | –
COC(=O)C1=CN(Cc2cccc(Cl)c2)C=CC1CCC(=O)c1ccc(OC)c(OC)c1 (centres undefined) | > 10 | > 10 | – | –
COC(=O)c1ccccc1C[n+]1ccc(CC2Cc3cc(OC)c(OC)cc3C2=O)c(C(=O)Oc2c(Cl)cc(Cl)cc2Cl)c1 (centres undefined) | 0.0693 | 0.373 | 5.38 | –
COc1ccc(C(=O)CCc2cc[n+](Cc3cccc(Cl)c3)cc2C(C)=O)cc1OC | 0.144 | 3.2 | 22.2 | –
COc1ccc2c(c1)CCC(CC1C=CN(Cc3ccccc3C)C=C1C(N)=O)C2=O (centres undefined) | > 10 | > 10 | – | Papp at 100 µM [5]: 18.8 ×10⁻⁶ cm/s
COc1cc2c(cc1OC)C(=O)C(CC1C=CN(Cc3ccccc3)C=C1C(C)=O)CC2 (centres undefined) [listing 2 of 2 here] | – | – | – | Papp at 100 µM [5]: 20.4 ×10⁻⁶ cm/s
COc1ccc(C(=O)CCc2cc[n+](Cc3cccc(Cl)c3)cc2C(N)=O)cc1OC | > 10 | > 10 | – | –
COc1ccc2c(c1)CCC(Cc1cc[n+](CC3CCCCC3)cc1C(C)=O)C2=O (centres undefined) | 0.21 | 0.341 | 1.6 | –
COc1ccc(C(=O)CCC2C=CN(Cc3cccc(Cl)c3)C=C2C#N)cc1OC (centres undefined) | 0.923 | > 10 | – | Papp at 100 µM [5]: 15.1 ×10⁻⁶ cm/s
COc1ccc(C(=O)CCc2cc[n+](Cc3cccc(F)c3)cc2C#N)cc1OC | 0.011 | > 10 | – | –
COc1cc2c(cc1OC)C(=O)C(CC1C=CN(Cc3cccc(Cl)c3)C=C1C(N)=O)C2 (stereo in doubt; 23h-A) | 5.34 | 14.3 | – | half-life at 25 µM ([7]; 2% riboflavine solution in PBS): 24.6 min
CC(=O)c1c[n+](Cc2cccc(Cl)c2)ccc1CC1Cc2cc(O)ccc2C1=O (centres undefined) | 0.116 | > 10 | – | –
COc1ccc2c(c1)CCC(Cc1cc[n+](Cc3cccc(C(F)(F)F)c3)cc1C(C)=O)C2=O (centres undefined) | – | – | 18 | –
COc1ccc2c(c1)CCC(Cc1cc[n+](Cc3cccc(C)c3)cc1C(C)=O)C2=O (centres undefined) | – | – | 5.3 | –
CC(=O)c1c[n+](Cc2ccccc2C)ccc1CC1Cc2cc(OCC(F)(F)F)ccc2C1=O (centres undefined) | 0.0371 | 4.15 | 112 | –
COc1ccc2c(c1)CCC(CC1C=CN(Cc3ccccc3Cl)C=C1C(C)=O)C2=O (centres undefined) | > 10 | – | – | Papp at 100 µM [5]: 21.2 ×10⁻⁶ cm/s

SMILES | IC50 [1] [µM] | IC50 [2] [µM] | Ratio IC50 [6] | further results
COc1cc2c(cc1O)C(=O)C(Cc1cc[n+](Cc3cccc(Cl)c3)cc1C(C)=O)C2 (centres undefined) | 0.0027 | > 10 | – | –
COc1ccc2c(c1)CCC(Cc1cc[n+](Cc3ccccc3Cl)cc1C(N)=O)C2=O (centres undefined) | 0.379 | 2.64 | 6.9 | –
CCC[n+]1ccc(CC2CCc3cc(OC)ccc3C2=O)c(C(C)=O)c1 (centres undefined) | > 10 | > 10 | – | –
COc1ccc(C(=O)CCc2cc[n+](Cc3cccc(Cl)c3)cc2C#N)cc1OC | 0.0222 | 4.24 | 191 | –
COc1cc2c(cc1OC)C(=O)C(Cc1cc[n+](Cc3cccc(Cl)c3)cc1C(C)=O)CC2 (centres undefined) | 0.021 | – | – | –
COc1cc2c(cc1OC)C(=O)C(CC1C=CN(Cc3ccccc3)C=C1C(C)=O)CC2 (stereo in doubt; 24a-D) | 0.924 | 9.07 | – | –
COc1cc2c(cc1OC)C(=O)C(Cc1cc[n+](Cc3ccccc3)cc1Br)C2 (centres undefined) | – | – | 4970 | –
Cn1c(=O)c2[nH]cnc2n(C)c1=O.O [THEOPHYLLINE] | – | – | – | Papp at 250 µM [8]: 0.4 to 0.66 ×10⁻⁶ cm/s
COc1cc2c(cc1OC)C(=O)C(CC1C=CN(Cc3ccccc3)C=C1C(C)=O)CC2 (stereo in doubt; 24a-C) | 0.173 | 1.67 | – | –
COc1ccc2c(c1)CCC(CC1C=CN(Cc3ccc(Cl)cc3)C=C1C(C)=O)C2=O (centres undefined) | > 10 | > 10 | – | –
COc1ccc2c(c1)CCC(CC1C=CN(Cc3ccc(C)cc3)C=C1C(C)=O)C2=O (centres undefined) | > 10 | > 10 | – | –
COc1cc2c(cc1OC)C(=O)C(Cc1cc[n+](Cc3cccc(C)n3)cc1C(N)=O)C2 (centres undefined) | 1.86 | > 10 | – | –
COc1ccc2c(c1)CCC(Cc1cc[n+](Cc3cccc(Cl)c3)cc1C(C)=O)C2=O (centres undefined) | – | – | 6.9 | –
COc1ccc(C(=O)CCC2C=CN(Cc3cccc(Cl)c3)C=C2C(C)=O)cc1OC (centres undefined) | > 10 | > 10 | – | Papp at 100 µM [5]: 18.2 ×10⁻⁶ cm/s
COc1ccc(C(=O)CCc2cc[n+](Cc3ccc(Cl)cc3)cc2C#N)cc1OC | > 10 | > 10 | – | –
COc1cc2c(cc1OC)C(=O)C(Cc1cc[n+](Cc3cccc(O)c3)cc1C(N)=O)C2 (centres undefined) | > 10 | 5.36 | – | –
COc1ccc2c(c1)CCC(CC1C=CN(Cc3cccc(C(F)(F)F)c3)C=C1C(C)=O)C2=O (centres undefined) | > 10 | > 10 | – | –
COc1ccc(C(=O)CCC2C=CN(Cc3cccc(Cl)c3)C=C2C(N)=O)cc1OC (centres undefined) | > 10 | > 10 | – | Papp at 100 µM [5]: 18.9 ×10⁻⁶ cm/s
COc1ccc2c(c1)CCC(Cc1cc[n+](Cc3cccc(F)c3)cc1C(C)=O)C2=O (centres undefined) | – | – | 7.5 | –
COc1cc2c(cc1OC)C(=O)C(CC1C=CN(Cc3ccccc3C)C=C1C(C)=O)C2 (centres undefined) | – | – | – | Papp at 100 µM [5]: 19.1 ×10⁻⁶ cm/s
COc1ccc2c(c1)CCC(Cc1cc[n+](Cc3ccc(C)cc3)cc1C(C)=O)C2=O (centres undefined) | – | – | 7.4 | –
